Data set [1] can be described thus: Thermodynamic stability of the crystal forms at room temperature. The data set is classed as physicochemical.
A short description of data set [2]: Heat stability of Form-III crystal form (heated in oil bath, examined by XRPD). Type of data set: physicochemical. To be noted: 6 hours, form-I and Form-II below the detection level. The text has this:
Pure Form-III crystal form (1 gm) prepared by the present process was placed in a boiling tube and heated gradually in oil bath. Then the substance was examined by XRPD.

The nature of data set [3]: Stability of Form-III crystal form under accelerated stress conditions in bulk and formulated capsule. The data set is classed as physicochemical. An excerpt: Table 5 - Stability of Form-III crystal form in bulk and formulated capsule
Data set [4] relates to K562 luc human leukemia cells. Kind of data set: Low dose oral treatment of nude mice implanted with K562 luc cells (luciferase expression). Type of data set: in vivo. As to conditions: oral administration. The protocol:
Nude mice (nu/nu) were implanted with K562 cells (1x106) normal/luc via tail vein. Five mice were used per group and divided into 24 groups + 2 control. All groups were implanted with K562 normal/luc cells. Of the 24 groups, 12 were used for luciferase studies whereas the other 12 were used for blood smear count studies.
Drugs were administered by oral gavage (2% gum acacia and 2% SLS in an aqueous suspension).

Data set [5] relates to K562 luciferase expressing cells. The data set is described as follows: Leukemic survival study, K562 luciferase expressing cells implanted intraperitoneally. The data set is classed as in vivo, nude mice.
Description: K562 luciferase expressing cells were implanted intraperitoneally into nude mice; the mice were scanned using the xenogeny IVIS image station after ip injections of luciferin does determine implantations. Drug treatment was started as in previous studies day 15 after implantation. The animals were given treatment till day 42, after which drug treatment was stopped and survival of the animals determined as per the animal care regulations. […] Drug treatment was withdrawn on day 42 post implantation and survival of animals determined.
For data set [6], the system named is 4910 human glioma xenograft cells. Kind of data set: Glioma radiation study, intracranially implanted 4910 cells. The data set is classed as in vivo, Nude mice. As to conditions: terminated at day 40. The protocol:
Nude mice were intracranially implanted with 4910 human glioma xenograft cells (1x10^6 cells). Ten days after implantation mice were treated with AN019, AN024 or temozolomide with or without radiation (5Gy/week). The experiment was terminated at day 40 post implantation.

Structures are written as SMILES. “Also recorded” adds a separate entry of the source. Where a name gives a salt, the structure may show the parent alone.

As for `Cc1ccc(NC(=O)c2cc(C(F)(F)F)cc(C(F)(F)F)c2)cc1Nc1nccc(-c2cccnc2)n1` [Form-I, (3,5-bis trifluoromethyl)-N-[4-methyl-3-(4-pyridin-3yl-pyrimidin-2ylamino)-phenyl]-benzamide], the “stability of crystal form at room temperature” value (“stability of crystal form” for short) in data set [1] is given as “metastable at room temperature”.

For `Cc1ccc(NC(=O)c2cc(C(F)(F)F)cc(C(F)(F)F)c2)cc1Nc1nccc(-c2cccnc2)n1` [Form-II, (3,5-bis trifluoromethyl)-N-[4-methyl-3-(4-pyridin-3yl-pyrimidin-2ylamino)-phenyl]-benzamide], in data set [1], the “stability of crystal form” value is “metastable at room temperature”.

For the molecule `Cc1ccc(NC(=O)c2cc(C(F)(F)F)cc(C(F)(F)F)c2)cc1Nc1nccc(-c2cccnc2)n1` [Form-III, (3,5-bis trifluoromethyl)-N-[4-methyl-3-(4-pyridin-3yl-pyrimidin-2ylamino)-phenyl]-benzamide], the “Polymorph form detected after heating” value is “Form-III” in data set [2] (110°C); “Form-III” in data set [2] (120°C); “non-metastable and stable when heated at 130 °C for 6 hours; also recorded: stable to heat even at 130 °C for 6 hours; also recorded: Form-III” in data set [2] (130°C). In addition, the “Polymorph content of bulk compound of formula I, Polymorph form detected” value in data set [3] (0 Month at 40±2°C / 75 ±5% RH), in data set [3] (1 Month at 40±2°C / 75 ±5% RH), in data set [3] (2 Months at 40±2°C / 75 ±5% RH), in data set [3] (3 Months at 40±2°C / 75 ±5% RH) and in data set [3] (6 Months at 40±2°C / 75 ±5% RH) was “Form-III” in each case. The “Polymorph content of Formula I in formulated capsule, Polymorph form detected” value in data set [3] (0 Month at 40±2°C / 75 ±5% RH), in data set [3] (1 Month at 40±2°C / 75 ±5% RH), in data set [3] (2 Months at 40±2°C / 75 ±5% RH), in data set [3] (3 Months at 40±2°C / 75 ±5% RH) and in data set [3] (6 Months at 40±2°C / 75 ±5% RH) was “Form-III” each time. In addition, in data set [1], the “stability of crystal form” value is listed as “thermodynamically stable form at room temperature”.

For `Cc1ccc(NC(=O)c2ccc(CN3CCN(C)CC3)cc2)cc1Nc1nccc(-c2cccnc2)n1` [Imatinib, Imatinib mesylate, reference compound], the luciferase expression entry in data set [4] (10mg/kg) and in data set [4] (20mg/kg) was “did show a retardation of luciferase expression” in each case. Further, in data set [5] (drug treatment withdrawn on day 42), the “leukemic symptoms after treatment withdrawal” value was “showed reoccurrences of leukemic symptoms after treatment withdrawal”. Besides, the “Blast cell count from blood smears after withdrawal of drug treatment” value in data set [5] (drug treatment withdrawn on day 42 (Fig. 21)) is reported as “found to be ineffective”. The mortality result in data set [5] (treatment from day 15 till day 42, then withdrawn, AN024 death determined to be other than leukemia) was “showed mortality on day 55, 56, 57 and 58”.

For the molecule `Cn1nnc2c(C(N)=O)ncn2c1=O` [Temozolomide, reference compound], the “animals cured / no observable intracranial tumor” value in data set [6] (with radiation (5Gy/week)) is reported as 2 of 10 animals. Moreover, the “animals cured / complete absence of intracranial tumours” value in data set [6] (without radiation, treatment from ten days after implantation) is 3 of 10 animals.

The record behind these values is patent publication EP2265599B1, “CRYSTAL FORM OF PHENYLAMINOPYRIMIDINE DERIVATIVE” (Natco Pharma Limited, priority 2008, dated 2009).
